Measured values as given in US20020169111A1, “Reversal of multidrug resistance in human colon carcinoma cells” (American Cyanamid Comany, priority 1998, published 2002).
Values joined by “and” are separate entries in the source; they are usually repeats but may differ in a detail not shown here. Equal entries are not always repeated. Where two headings read alike, the source gives them in different places.

Key:
[1] = test system: MCF-7/BCRP cells; experiment: Dose modifying factor of FTC in BCRP-transfected cells; format: cell-based, human; details: MCF-7/BCRP
Method: Cell survival was estimated after 3 days using the SRB assay, and EC50 values were determined from cytotoxicity curves.

[2] = test system: S1-M1-3.2 cells; details: for Per Cent Survival Alone: 3 days; for Difference Score: survival alone minus survival with 3.2 μM mitoxantrone
How it was run: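 Cells grown in medium with 5% FBS received reversal agents at 0.1-80 μM (triplicate per dose), with or without the antitumor agent, plus reversal agent-only wells; survival by SRB assay. Difference Score = % survival with drug alone minus % survival with drug plus antitumor agent.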

[3] = test system: 8226/MR4 cells; experiment: Reversal of mitoxantrone resistance in myeloid cells; format: cell-based, human; details: selected for resistance to mitoxantrone
[4] = test system: MCF-7 cells; format: cell-based, human; details: 1 hour retention phase
Method: (§1) All incubations were carried out in the absence or presence of FTC (1 or 5 μM).

[5] = test system: MCF-7/BCRP cells; format: cell-based, human; details: MCF-7/BCRP
Method: as §1

[6] = test system: HL-60/AR cells; format: cell-based; details: for Dose modifying factor: HL-60/AR
Method: (§2) Cell survival was estimated after 3 days using the SRB assay. Cell survival was determined by the SRB assay and EC50 values were determined from toxicity curves. The dose modifying factor (DMF) is the ratio of EC50 values obtained in the absence and presence of reversal agent. Maximum DMF values (shown in parentheses) is the ratio of EC50 values of resistant and sensitive cells in the absence of the reversal agent. This value is obtained when resistance is reversed completely, and is the equivalent of the relative resistance.

[7] = test system: A549; experiment: Sensitization of unselected cells to mitoxantrone; format: cell-based; details: A549 non small cell lung carcinoma, not selected
[8] = test system: S1 cells; experiment: Dose modifying factor of FTC (SRB, EC50 ratio); format: cell-based, human
Method: as §2

[9] = test system: S1-M1-3.2 cells; experiment: Dose modifying factor of FTC (SRB, EC50 ratio); format: cell-based, human; details: S1-M1 cells
Method: as §2

[10] = test system: MCF 7/AdVp cells; format: cell-based, human; details: MCF 7/AdVp; 5 μM FTC with Paclitaxel
Method: as §2
In order to determine the utility of FTC as a reversal agent in other multidrug resistant cell lines, FTC was tested in two breast cancer cell lines which show a multidrug resistant phenotype with no overexpression of P-gp or MRP.

[11] = test system: H460; experiment: Sensitization of unselected cells to mitoxantrone; format: cell-based; details: H460 non small cell lung carcinoma, not selected
[12] = test system: S1-B1-20 cells; experiment: Reversal of resistance in P-gp expressing cells, alone or with 21 μM bisantrene; format: cell-based, human; set-up: Difference Score: unit not given here; details: for Per Cent Survival with 21 μM bisantrene / Per Cent Survival Alone / Difference Score: S1-B1-20 cells; for Difference Score: survival alone minus survival with 21 μM bisantrene
Method: To determine the specificity of FTC for non P-gp multidrug resistance, FTC was tested on S1-B1-20 cells which were selected for resistance to bisantrene and which express high levels of P-gp (Table 9)(Zhang, et al, Oncol. Res. 6291-301 (1994)). […] The 21 μM concentration of bisantrene is not inhibitory to the growth of the cells. Values shown are mean ± standard deviation from triplicate test wells.

[13] = test system: HL-60 cells; experiment: Dose modifying factor of FTC (SRB, EC50 ratio); format: cell-based; details: for Dose modifying factor: HL-60
Method: as §2

[14] = 1 μM [14C]-doxorubicin, 1 hour retention phase
[15] = 1 μM daunorubicin, 1 hour retention phase

Question: Which results are given for `COc1ccc2c3c([nH]c2c1)[C@H](C=C(C)C)N1C(=O)[C@@H]2CCCN2C(=O)[C@@H]1C3` [Fumitremorgin C]?
Answer: Dose modifying factor (5 μM FTC) ([1]; with Doxorubicin): 6.6; Dose modifying factor (5 μM FTC) ([1]; with Mitoxantrone): 29.4; Dose modifying factor (5 μM FTC) ([1]; with Paclitaxel): 1.1; Dose modifying factor (5 μM FTC) ([1]; with Topotecan): 6.5; concentration giving 40% cell death (compound alone) ([2]; S1-M1-3.2 cells): greater than 80 μM; toxicity alone (in words) ([2]; S1-M1-3.2 cells, dose range tested 0.1-80 μM): No toxicity; Per Cent Survival with 3.2 μM mitoxantrone ([2]; S1-M1-3.2 cells, drug 0.1 μM): 95 ± 4 Per Cent; Per Cent Survival Alone ([2]; S1-M1-3.2 cells, drug 0.1 μM alone): 105 ± 4 Per Cent; Difference Score ([2]; S1-M1-3.2 cells, drug 0.1 μM): 10; Per Cent Survival with 3.2 μM mitoxantrone ([2]; S1-M1-3.2 cells, drug 0.5 μM): 39 ± 10 Per Cent; Per Cent Survival Alone ([2]; S1-M1-3.2 cells, drug 0.5 μM alone): 105 ± 2 Per Cent; Difference Score ([2]; S1-M1-3.2 cells, drug 0.5 μM): 66; Per Cent Survival with 3.2 μM mitoxantrone ([2]; S1-M1-3.2 cells, drug 1 μM): 30 ± 1 Per Cent; Per Cent Survival Alone ([2]; S1-M1-3.2 cells, drug 1 μM alone): 103 ± 1 Per Cent; Difference Score ([2]; S1-M1-3.2 cells, drug 1 μM): 73; Per Cent Survival with 3.2 μM mitoxantrone ([2]; S1-M1-3.2 cells, drug 5 μM): 24 ± 4 Per Cent; Per Cent Survival Alone ([2]; S1-M1-3.2 cells, drug 5 μM alone): 99 ± 5 Per Cent; Difference Score ([2]; S1-M1-3.2 cells, drug 5 μM): 75; Per Cent Survival with 3.2 μM mitoxantrone ([2]; S1-M1-3.2 cells, drug 10 μM): 22 ± 6 Per Cent; Per Cent Survival Alone ([2]; S1-M1-3.2 cells, drug 10 μM alone): 99 ± 1 Per Cent; Difference Score ([2]; S1-M1-3.2 cells, drug 10 μM): 77; Per Cent Survival with 3.2 μM mitoxantrone ([2]; S1-M1-3.2 cells, drug 20 μM): 17 ± 10 Per Cent; Per Cent Survival Alone ([2]; S1-M1-3.2 cells, drug 20 μM alone): 104 ± 4 Per Cent; Difference Score ([2]; S1-M1-3.2 cells, drug 20 μM): 87; Per Cent Survival with 3.2 μM mitoxantrone ([2]; S1-M1-3.2 cells, drug 40 μM): 14 ± 11 Per Cent; Per Cent Survival Alone ([2]; S1-M1-3.2 cells, drug 40 μM alone): 108 ± 5 Per Cent; Difference Score ([2]; S1-M1-3.2 cells, drug 40 μM): 94; Per Cent Survival with 3.2 μM mitoxantrone ([2]; S1-M1-3.2 cells, drug 80 μM): 13 ± 11 Per Cent; Per Cent Survival Alone ([2]; S1-M1-3.2 cells, drug 80 μM alone): 94 ± 4 Per Cent; Difference Score ([2]; S1-M1-3.2 cells, drug 80 μM): 81; Toxicity (>20%) ([2]; compound alone, concentration that causes greater than 20% cell death of S1-M1-3.2 cells): >80.0 µM; Toxicity (>20%) (μM) ([2]; compound alone, concentration that causes greater than 20% cell death of S1-M1-3.2 cells, listed as FTC): greater than 80.0 μM; IC50 ([2]; read-out: IC50 (μM), resensitizing S1-M1-3.2 cells to mitoxantrone, with 3.2 μM mitoxantrone, 50% cancer cell death, listed as FTC): 0.35 µM and 0.3 µM; reversal of resistance in 8226/MR4 cells (in words) [3]: reversed low level resistance; [^14C] doxorubicin retention, 1 μM FTC ([4]; 1 μM [14C]-doxorubicin): 10.3 ± 0.26 DPM per microgram protein; [^14C] doxorubicin retention, 5 μM FTC ([4]; 1 μM [14C]-doxorubicin): 11.0 ± 0.71 DPM per microgram protein; daunorubicin retention, Channel Number (fluorescence units), 1 μM FTC ([4]; 1 μM daunorubicin): 16.0 ± 0.98 fluorescence units; daunorubicin retention, Channel Number (fluorescence units), 5 μM FTC ([4]; 1 μM daunorubicin): 16.8 ± 1.0 fluorescence units; [^14C] doxorubicin retention, 1 μM FTC [5, 14]: 9.5 ± 0.63 DPM per microgram protein; [^14C] doxorubicin retention, 5 μM FTC [5, 14]: 9.9 ± 0.18 DPM per microgram protein; daunorubicin retention, Channel Number (fluorescence units), 1 μM FTC [5, 15]: 12.2 ± 1.78 fluorescence units; daunorubicin retention, Channel Number (fluorescence units), 5 μM FTC [5, 15]: 15.6 ± 0.94 fluorescence units; increase of amount of [^14C]-doxorubicin retained compared with untreated cells ([5]; FTC 1 or 5 μM): 1.8 fold; increase of amount of daunorubicin retained compared with untreated cells ([5]; FTC 1 or 5 μM): 1.8-2.3 fold; reversal activity of FTC (fold), range over drugs ([6]; HL60/AR): 2.6-3.3 fold; Dose modifying factor ([6]; 5 μM FTC with Doxorubicin): 2.8 (92.3); Dose modifying factor ([6]; 5 μM FTC with Mitoxantrone): 3.3 (53); Dose modifying factor ([6]; 5 μM FTC with Paclitaxel): 2.6 (5.1); reversal of resistance in MRP-positive HL60/AR cells (in words) ([6]; doxorubicin-selected): did not reverse resistance; sensitization to mitoxantrone (in words) [7]: can be sensitized to mitoxantrone; Dose modifying factor ([8]; 5 μM FTC with Doxorubicin): 1; Dose modifying factor ([8]; 5 μM FTC with Mitoxantrone): 1; Dose modifying factor ([8]; 5 μM FTC with Paclitaxel): 1.4; Dose modifying factor ([8]; 5 μM FTC with Topotecan): 0.9; Dose modifying factor ([9]; 5 μM FTC with Doxorubicin, listed as FTC): 26 and 25.9; Dose modifying factor ([9]; 5 μM FTC with Mitoxantrone): 93; Dose modifying factor ([9]; 5 μM FTC with Paclitaxel): 1.1; Dose modifying factor ([9]; 5 μM FTC with Topotecan): 24; Dose modifying factor [10]: 0.7 (10.7); sensitization to mitoxantrone (in words) [11]: can be sensitized to mitoxantrone; Per Cent Survival with 21 μM bisantrene ([12]; drug 0.1 μM): 101 ± 1 Per Cent; Per Cent Survival Alone ([12]; drug 0.1 μM alone): 99 ± 1 Per Cent; Difference Score ([12]; drug 0.1 μM): −4; Per Cent Survival with 21 μM bisantrene ([12]; drug 0.5 μM): 103 ± 1 Per Cent; Per Cent Survival Alone ([12]; drug 0.5 μM alone): 99 ± 1 Per Cent; Difference Score ([12]; drug 0.5 μM): −4; Per Cent Survival with 21 μM bisantrene ([12]; drug 1 μM): 100 ± 0 Per Cent; Per Cent Survival Alone ([12]; drug 1 μM alone): 98 ± 3 Per Cent; Difference Score ([12]; drug 1 μM): −2; Per Cent Survival with 21 μM bisantrene ([12]; drug 5 μM): 103 ± 2 Per Cent; Per Cent Survival Alone ([12]; drug 5 μM alone): 101 ± 3 Per Cent; Difference Score ([12]; drug 5 μM): −2; Per Cent Survival with 21 μM bisantrene ([12]; drug 10 μM): 93 ± 1 Per Cent; Per Cent Survival Alone ([12]; drug 10 μM alone): 88 ± 0 Per Cent; Difference Score ([12]; drug 10 μM): −4; Per Cent Survival with 21 μM bisantrene ([12]; drug 20 μM): 89 ± 1 Per Cent; Per Cent Survival Alone ([12]; drug 20 μM alone): 85 ± 0 Per Cent; Difference Score ([12]; drug 20 μM): −4; Per Cent Survival with 21 μM bisantrene ([12]; drug 40 μM): 77 ± 2 Per Cent; Per Cent Survival Alone ([12]; drug 40 μM alone): 83 ± 1 Per Cent; Difference Score ([12]; drug 40 μM): 13; Per Cent Survival with 21 μM bisantrene ([12]; drug 80 μM): 53 ± 5 Per Cent; Per Cent Survival Alone ([12]; drug 80 μM alone): 35 ± 1 Per Cent; Difference Score ([12]; drug 80 μM): −18; reversal of resistance in P-gp positive S1-B1-20 cells (in words) ([12]; bisantrene-selected): did not reverse resistance; Dose modifying factor ([13]; 5 μM FTC with Doxorubicin): 2.1; Dose modifying factor ([13]; 5 μM FTC with Mitoxantrone): 1.3; Dose modifying factor ([13]; 5 μM FTC with Paclitaxel): 1.0; reversal activity of FTC (fold), range over drugs ([13]; parental line HL-60): 1.0-2.1 fold
